Data taken from patent publication US20150307491A1, “SUBSTITUTED PYRIDOPYRAZINES AS SYK INHIBITORS” (HUTCHISON MEDIPHARMA LIMITED, priority 2012, published 2015).

Assays:
Syk kinase = Syk kinase (Homo sapiens, UniProt P43405); assay: SYK enzymatic assay; assay type: biochemical; details: Tyr 2 Peptide, 8 concentrations 1 μM down to 0.0003 μM
Procedure: Syk kinase assay are performed in vitro using Kit-Tyr 2 Peptide (Invitrogen, Cat. No. PV3191) and in a 384-well assay plate. […] The 384-well assay plate (Corning, Cat. No. 3575) is mixed and incubated at room temperature for 1 hour. 10 μL of the Development Solution (prepared by diluting Development Reagent A (Cat. No. PV3297) to 1/32 with Development Buffer (Cat. No. PV3127)) is then added to each well, mixed and incubated at room temperature for another 1 hour. The reactions are then stopped by adding 10 μL of the Stop Reagent (Invitrogen, Cat. No. PV3094), and the plate is read with Wallac 1420 VICTOR^3 Multilabel Counter (PerkinElmer™) at 445 nm and 520 nm fluorescence. All compounds are tested at 8 concentrations (1 μM down to 0.0003 μM) using a 1:3 serial dilution scheme.

RBL-2H3 cells = assay: IgE-induced Beta-hexosaminidase secretion in RBL-2H3 cells; assay type: cell-based; details: Rattus norvegicus; RBL-2H3 cells sensitized with SPE-7, stimulated with DNP-BSA
Procedure: For the determination of IgE-induced Beta-hexosaminidase secretion, RBL-2H3 cells (SIBS) are seeded in 96 well plates at 4×10^4 cells per well and incubated in MEM media with 15% FBS and Glutamine ([…]) for 4 hours and sensitized with 0.5 ug/ml of SPE-7 overnight. Cells are washed 3 times with Tyrode's buffer and incubated in the presence or absence of various concentrations of the testing compound for 20 min at 37° C., 5% CO2. Cells are stimulated by adding 10 μL of DNP-BSA solution (150 ng/mL) to each well and incubating for 45 minutes at 37° C., 5% CO2. Then, 45 μL of the supernatant is taken and incubated with 100 μL of 1 mM 4-Nitrophenyl N-acetyl-β-D-glucosaminide (Sigma, Cat. No. N9376), which is diluted in 0.05 M citrate buffer (pH 4.5), for 1.5 hr at 37° C. The reactions are quenched by adding 185 μL of 0.05 M sodium carbonate buffer (pH 10.0). Plates are read at 405 nm on Multiskan (MK 3).

Flt3 kinase = target: T1, Flt3 kinase (Homo sapiens, UniProt P36888); assay: Z-lyte kinase assay of Flt-3; assay type: biochemical; details: Z-LYTE Tyr 2 peptide; final concentrations 3 to 0.0014 μM
T1 construct: purchased Invitrogen PV3182
T1 sequence (P36888 564-993 limits assumed): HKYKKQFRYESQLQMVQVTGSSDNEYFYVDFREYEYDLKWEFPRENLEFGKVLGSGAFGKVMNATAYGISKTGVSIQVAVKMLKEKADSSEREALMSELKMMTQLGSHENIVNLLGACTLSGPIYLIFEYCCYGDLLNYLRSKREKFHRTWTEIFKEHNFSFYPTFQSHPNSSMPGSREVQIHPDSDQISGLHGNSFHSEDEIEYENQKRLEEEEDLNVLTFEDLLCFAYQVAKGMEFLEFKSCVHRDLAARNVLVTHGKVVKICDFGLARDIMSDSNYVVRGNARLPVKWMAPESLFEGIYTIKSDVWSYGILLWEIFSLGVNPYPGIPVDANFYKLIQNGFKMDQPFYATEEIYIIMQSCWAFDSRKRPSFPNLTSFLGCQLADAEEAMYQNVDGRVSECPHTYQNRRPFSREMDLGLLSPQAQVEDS
Procedure: Z-lyte kinase assay of Flt-3:
Dilute 5× Kinase Buffer to 1,33× with ddH2O
Serially dilute the test compounds to 4 folds of the concentrations desired, keeping the DMSO concentration at 8%. The final concentrations were 3, 1, 0.33, 0.11, 0.037, 0.012, 0.004, 0.0014 μM, and the final concentration of DMSO was 2%,
Prepare Kinase/Peptide Mixture by diluting the kinase to 0.12 μg/mL and the Z-LYTE™ Tyr 2 peptide to 4 μM in 1.33× Kinase Buffer. Mix gently by pipetting. 4) Phcspho-peptide Solution (PP solution)
Add 0.4 μL of Z-LYTE™ Tyr 2 Phospho-peptide to 99.6 μL of 1.33× Kinase Buffer.
Prepare ATP Solution by diluting the 10 mM of ATP in 1.33× Kinase Buffer to 1.88 mM.
Dilute Development Reagent A with Development Buffer as 1:64.
1) Kinase reaction (10 μL of Volume) • a. Add 2.5 μL of 4× test Cpds to each well except C1, C2, C3 wells
Add 2.5 μL of 8% DMSO to C1, C2, C3 wells • b. Put the 384-plate on ice • c. Add 5 μL of P/K mixture to each test Cpd wells and C1, C2 wells • d. Add 5 μL of PP Solution to C3 well • e. Add 2.5 μL of 1,33× kinase buffer to C1 and C3 wells • f. Add 2.5 μL of 4×ATP Solution to each test Cpd wells and C2 well, respectively.
Shake the plate for 30 Sec and centrifuge (1500 rpm, 1 min) • g. Seal the plate to protect from the light and incubate the plate for 1 hour at RT (25-30° C.) 2) Development reaction • a. Add 5 μL of the Development solution to all wells • b. Shake the plate for 30 Sec and centrifuge (1500 rpm, 1 min) • c. Seal the plate to protect from the light and incubate the plate for 1 hour at RT (25-30° C.) 3) Stop and read • a. Add 5 μL of the Stop reagent to all wells • b. Shake the plate for 30 Sec and centrifuge (1500 rpm, 1 min) • c. Measure the value of Coumarin (Ex400 nm, Em445 nm) and fluorescein (Ex400 nm, Em520 nm), respectively. 4. Data analysis
Emission Ratio (ER) Coumarin Emission (445 nm)/Fluorescein Emission (520 nm)
inhibition ratio (IR)=1−% Photest Cpd/% PhoC2%
IC50 Value: determined with add-in software for Microsoft Excel, XLfit™ (version 2.0) from ID Business Solutions (Guildford: UK)

IC50 (Syk kinase) [nM]	IC50 (Flt3 kinase) [nM]	SMILES	IC50 (RBL-2H3 cells) [nM]
1 to 100	–	CS(=O)(=O)N1CCO[C@H](COc2nc(-c3ccc4c(c3)OCCO4)cc3nccnc23)C1 [Compound 109]	100 to 1000
–	2010	CN(C)c1ccc(-c2cc3nccnc3c(OC[C@@H]3CN(S(C)(=O)=O)CCO3)n2)cc1 [Compound 94]	1 to 100
1 to 100	–	CN(C)c1ccc(-c2cc3nccnc3c(OC[C@@H]3CN(C(=O)[C@H]4CC[C@H](O)CC4)CCO3)n2)cc1 [Compound 75]	–
–	2820	CN(C)c1ccc(-c2cc3nccnc3c(OC[C@@H]3CN(C(=O)[C@H]4CCOC4)CCO3)n2)cc1 [Compound 95]	1 to 100
1 to 100	–	O=C(C(F)F)N1CCO[C@H](COc2nc(-c3ccc(C4CCOCC4)cc3)cc3nccnc23)C1 [Compound 9]	100 to 1000
–	> 3000	CN(C)c1ccc(-c2cc3nccnc3c(OC[C@@H]3CN(C(=O)C(F)F)CCO3)n2)cc1F [Compound 32]	1 to 100
–	> 3000	CN(C)c1ccc(-c2cc3nccnc3c(OC[C@@H]3CN(S(=O)(=O)C4CC4)CCO3)n2)cc1 [Compound 90]	1 to 100
–	2520	CC(=O)N1CCO[C@H](COc2nc(-c3ccc(N(C)C)cc3)cc3nccnc23)C1 [Compound 67]	1 to 100
–	> 3000	CN(C)c1ccc(-c2cc3nccnc3c(OC[C@@H]3CN(C(=O)C4CC4)CCO3)n2)cc1 [Compound 69]	1 to 100
–	> 3000	CN(C)c1ccc(-c2cc3nccnc3c(OC[C@@H]3CN(C(=O)C(F)F)CCO3)n2)cc1 [Compound 100]	1 to 100
1 to 100	–	CC(C)S(=O)(=O)N1CCO[C@H](COc2nc(-c3ccc(N(C)C)cc3)cc3nccnc23)C1 [Compound 89]	100 to 1000
1 to 100	–	O=C(C(F)F)N1CCO[C@H](COc2nc(-c3ccc(N4CCOCC4)c(F)c3)cc3nccnc23)C1 [Compound 15]	100 to 1000
–	–	CC(=O)N1CCC(c2ccc(-c3cc4nccnc4c(OC[C@@H]4CN(C(C)=O)CCO4)n3)cc2)CC1 [Compound 54]	100 to 1000
–	–	CN1CCN(c2ccc(-c3cc4nccnc4c(OC[C@@H]4CN(C(=O)C(F)F)CCO4)n3)cc2)CC1 [Compound 16]	1 to 100
–	–	CN(C)c1ccc(-c2cc3nccnc3c(OC[C@@H]3CN(S(=O)(=O)CCN4CC[C@H](O)C4)CCO3)n2)cc1 [Compound 103]	100 to 1000
–	–	CC(C)(O)C1CCN(c2ccc(-c3cc4nccnc4c(OC[C@@H]4CN(S(C)(=O)=O)CCO4)n3)cc2)CC1 [Compound 22]	1 to 100
1 to 100	–	CN(C)c1ccc(-c2cc3nccnc3c(OC[C@@H]3CN(C(=O)CC4CC4)CCO3)n2)cc1 [Compound 70]	100 to 1000
–	–	CS(=O)(=O)N1CCO[C@H](COc2nc(-c3ccc(N4CCC(F)(F)CC4)cc3)cc3nccnc23)C1 [Compound 20]	1 to 100
–	–	CCS(=O)(=O)N1CCN(c2ccc(-c3cc4nccnc4c(OC[C@@H]4CN(C(C)=O)CCO4)n3)cc2)CC1 [Compound 25]	100 to 1000
–	–	CS(=O)(=O)N1CCO[C@H](COc2nc(-c3ccc(C4CCN(CCO)CC4)cc3)cc3nccnc23)C1 [Compound 58, (S)-2-(4-(4-(5-((4-(methylsulfonyl)morpholin-2-yl)methoxy)pyrido[3,4-b]pyrazin-7-yl)phenyl)piperidin-1-yl)ethanol]	100 to 1000
–	–	NS(=O)(=O)N1CCO[C@H](COc2nc(-c3ccc(N4CCCC4)cc3)cc3nccnc23)C1 [Compound 30]	100 to 1000
–	–	Cn1ccc2ccc(-c3cc4nccnc4c(OC[C@@H]4CN(S(C)(=O)=O)CCO4)n3)cc21 [Compound 120]	1 to 100
–	–	CN1CCN(c2ccc(-c3cc4nccnc4c(OC[C@@H]4CN(S(N)(=O)=O)CCO4)n3)cc2)CC1 [Compound 64]	100 to 1000
–	–	CN(C)c1ccc(-c2cc3nccnc3c(O[C@@H]3CCOC3)n2)cc1 [Compound 123]	1 to 100
